Source: ChEMBL document CHEMBL5150045, “Structure-Guided Design of Halofuginone Derivatives as ATP-Aided Inhibitors Against Bacterial Prolyl-tRNA Synthetase” (J Med Chem, 2022)
In brackets after ≈: the same amount, converted by molar mass. Several values for one entry are separate records, joined by “and”; a condition that tells them apart may be missing. Equal values may be shown once. Activity calls are given as the source filed them. The calls are words filed in the database; no cut-off is given here.

Experiments:
[1] = molecular target: T1, Proline--tRNA ligase (Escherichia coli) (UniProt P16659); experiment: Inhibition of Escherichia coli ProRS expressed in Escherichia coli assessed as generation of inorganic monophosphate by pre-transfer editing-based experiment; conditions: dose 0-100 µM, DDE = dose-dependent effect
T1 sequence (whole entry): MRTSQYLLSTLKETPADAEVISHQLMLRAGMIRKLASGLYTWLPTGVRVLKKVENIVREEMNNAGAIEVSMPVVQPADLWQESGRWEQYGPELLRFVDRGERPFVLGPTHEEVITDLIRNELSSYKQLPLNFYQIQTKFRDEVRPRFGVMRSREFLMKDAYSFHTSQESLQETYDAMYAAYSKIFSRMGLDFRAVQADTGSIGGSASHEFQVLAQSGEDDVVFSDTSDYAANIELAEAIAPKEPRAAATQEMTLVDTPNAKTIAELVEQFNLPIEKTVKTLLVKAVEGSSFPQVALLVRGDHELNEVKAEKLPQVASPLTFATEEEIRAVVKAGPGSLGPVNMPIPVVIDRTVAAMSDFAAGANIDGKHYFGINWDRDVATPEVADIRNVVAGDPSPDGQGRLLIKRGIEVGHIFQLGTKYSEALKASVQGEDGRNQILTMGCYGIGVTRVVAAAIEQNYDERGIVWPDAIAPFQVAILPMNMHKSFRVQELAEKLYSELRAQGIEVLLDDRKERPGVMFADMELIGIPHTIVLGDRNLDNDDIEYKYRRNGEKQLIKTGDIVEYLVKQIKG

[2] = molecular target: T2, Proline--tRNA ligase (Salmonella typhi) (UniProt Q8XEY9); experiment: Inhibition of Salmonella typhi ProRS expressed in Escherichia coli assessed as generation of inorganic monophosphate by pre-transfer editing-based experiment; conditions: Salmonella enterica subsp. enterica serovar Typhi; dose 0-100 µM; DDE = dose-dependent effect
T2 sequence (whole entry): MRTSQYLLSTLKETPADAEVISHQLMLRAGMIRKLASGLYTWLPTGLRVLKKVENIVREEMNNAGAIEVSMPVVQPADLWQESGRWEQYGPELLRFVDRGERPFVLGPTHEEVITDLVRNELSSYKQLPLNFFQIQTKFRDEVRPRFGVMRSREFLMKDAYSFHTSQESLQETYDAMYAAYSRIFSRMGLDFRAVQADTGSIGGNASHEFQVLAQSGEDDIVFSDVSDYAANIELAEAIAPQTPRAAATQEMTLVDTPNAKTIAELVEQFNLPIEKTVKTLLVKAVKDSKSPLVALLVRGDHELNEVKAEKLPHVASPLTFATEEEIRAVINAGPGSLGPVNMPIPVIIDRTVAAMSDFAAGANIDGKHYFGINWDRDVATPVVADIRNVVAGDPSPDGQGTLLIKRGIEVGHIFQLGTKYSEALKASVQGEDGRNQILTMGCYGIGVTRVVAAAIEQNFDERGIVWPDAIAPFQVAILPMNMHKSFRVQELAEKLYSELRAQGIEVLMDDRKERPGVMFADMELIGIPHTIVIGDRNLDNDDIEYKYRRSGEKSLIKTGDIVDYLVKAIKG

[3] = (§1) Inhibition of methicillin-resistant Staphylococcus aureus ProRS expressed in Escherichia coli assessed as generation of inorganic monophosphate by pre-transfer editing-based experiment
Staphylococcus aureus [4] = experiment: as §1; conditions: dose 0-100 µM, DDE = dose-dependent effect
Homo sapiens [5] = species on record: Homo sapiens; experiment: Inhibition of human ProRS expressed in Escherichia coli assessed as generation of inorganic monophosphate by pre-transfer editing-based experiment; conditions: dose 0-100 µM, DDE = dose-dependent effect
Saccharomyces cerevisiae = experiment: Inhibition of Saccharomyces cerevisiae ProRS expressed in Escherichia coli assessed as generation of inorganic monophosphate at 0 to 100 uM by pre-transfer editing-based experiment; conditions: dose 0-100 µM, DDE = dose-dependent effect
[6] = molecular target: T1, Proline--tRNA ligase (Escherichia coli); experiment: Inhibition of Escherichia coil ProRS expressed in Escherichia coli assessed as change in melting temperature in presence of AMPPNP at 0.5 mM by fluorescence-based thermal shift assay
[7] = molecular target: T2, Proline--tRNA ligase (Salmonella typhi); experiment: Inhibition of Salmonella typhi ProRS expressed in Escherichia coli assessed as change in melting temperature in presence of AMPPNP at 0.5 mM by fluorescence-based thermal shift assay; conditions: Salmonella enterica subsp. enterica serovar Typhi
Staphylococcus aureus [8] = experiment: Inhibition of methicillin-resistant Staphylococcus aureus ProRS expressed in Escherichia coli assessed as change in melting temperature in presence of AMPPNP at 0.5 mM by fluorescence-based thermal shift assay
Homo sapiens [9] = species on record: Homo sapiens; experiment: Inhibition of human ProRS expressed in Escherichia coli assessed as change in melting temperature in presence of AMPPNP at 0.5 mM by fluorescence-based thermal shift assay
[10] = Binding affinity to methicillin-resistant Staphylococcus aureus ProRS expressed in Escherichia coli assessed as dissociation constant by microscale thermophoresis assay
[11] = Binding affinity to methicillin-resistant Staphylococcus aureus ProRS expressed in Escherichia coli assessed as dissociation constant in presence of 0.05 nM ATP by microscale thermophoresis assay
[12] = Binding affinity to methicillin-resistant Staphylococcus aureus ProRS expressed in Escherichia coli assessed as dissociation constant in presence of 0.1 nM ATP by microscale thermophoresis assay
[13] = Binding affinity to methicillin-resistant Staphylococcus aureus ProRS expressed in Escherichia coli assessed as dissociation constant in presence of 0.2 nM ATP by microscale thermophoresis assay
[14] = Binding affinity to methicillin-resistant Staphylococcus aureus ProRS expressed in Escherichia coli assessed as dissociation constant in presence of 0.5 nM ATP by microscale thermophoresis assay
[15] = Binding affinity to methicillin-resistant Staphylococcus aureus ProRS expressed in Escherichia coli assessed as dissociation constant in presence of 1 nM ATP by microscale thermophoresis assay
[16] = Binding affinity to methicillin-resistant Staphylococcus aureus ProRS expressed in Escherichia coli assessed as dissociation constant in presence of 2 nM ATP by microscale thermophoresis assay
Escherichia coli [17] = experiment: Antibacterial activity against Escherichia coli ATCC25922 assessed as prevention of visible growth by broth microdilution method; format: functional
Shigella flexneri = experiment: Antibacterial activity against Shigella flexneri CMCC51572 assessed as prevention of visible growth by broth microdilution method; format: functional
Salmonella typhi = experiment: Antibacterial activity against Salmonella typhi CMCC50094 assessed as prevention of visible growth by broth microdilution method; format: functional, Salmonella enterica subsp. enterica serovar Typhi; conditions: Salmonella enterica
Staphylococcus aureus [18] = experiment: Antibacterial activity against methicillin-resistant Staphylococcus aureus 252 assessed as prevention of visible growth by broth microdilution method; format: functional
Staphylococcus aureus [19] = experiment: Antibacterial activity against methicillin-resistant Staphylococcus aureus R3708 assessed as prevention of visible growth by broth microdilution method; format: functional
Staphylococcus aureus [20] = experiment: Antibacterial activity against Staphylococcus aureus ATCC29213 assessed as prevention of visible growth by broth microdilution method; format: functional
Staphylococcus aureus [21] = experiment: Antibacterial activity against Staphylococcus aureus ATCC25923 assessed as prevention of visible growth by broth microdilution method; format: functional
[22] = Cytotoxicity against human HepG2 cells; format: toxicity, cell-based
[23] = Selectivity index, ratio of CC50 for human HepG2 cells to MIC for methicillin-resistant Staphylococcus aureus 252; format: toxicity; conditions: read-out: Selectivity Index
Staphylococcus aureus [24] = experiment: Bactericidal activity against methicillin-resistant Staphylococcus aureus 252 assessed as bacterial killing measured after 24 hrs incubation by CLSI method; format: functional; conditions: read-out: MBC99.9
Staphylococcus aureus [25] = experiment: Ratio of MBC99.9 for methicillin-resistant Staphylococcus aureus 252 to MIC for methicillin-resistant Staphylococcus aureus 252; format: functional
Escherichia coli [26] = experiment: Ratio of MBC99.9 for Escherichia coli ATCC25922 to MIC for Escherichia coli ATCC25922; format: functional
Staphylococcus aureus [27] = experiment: Bacteriostatic effect against methicillin-resistant Staphylococcus aureus 252 assessed as decrease in CFU/ml at 1 to 4 times of MIC measured for 0 to 12 hrs by CLSI based time-kill kinetic assays; format: functional, organism-based; conditions: time 0-12 hrs
Escherichia coli [28] = experiment: Bacteriostatic effect against Escherichia coli ATCC25922 assessed as decrease in CFU/ml at 1 to 4 times of MIC measured for 0 to 12 hrs by CLSI based time-kill kinetic assays; format: functional, organism-based; conditions: time 0-12 hrs
Staphylococcus aureus [29] = experiment: Bacteriostatic effect against methicillin-resistant Staphylococcus aureus 252 assessed as decrease in CFU/ml at 4 times of MIC measured for 24 hrs by CLSI based time-kill kinetic assays; format: functional
Escherichia coli [30] = experiment: Bacteriostatic effect against Escherichia coli ATCC25922 assessed as decrease in CFU/ml at 4 times of MIC measured for 24 hrs by CLSI based time-kill kinetic assays; format: functional
Staphylococcus aureus [31] = experiment: Resistance development in methicillin-resistant Staphylococcus aureus 252 assessed as fold increase in resistance after 15 days serial passage upto 256 ug/ml; format: functional; conditions: dose <= 256 µg/ml; time 15 day
Escherichia coli [32] = experiment: Resistance development in Escherichia coli ATCC25922 assessed as fold increase in resistance after 15 days serial passage upto 256 ug/ml; format: functional; conditions: dose <= 256 µg/ml; time 15 day
Staphylococcus aureus [33] = experiment: Antibacterial activity against drug-resistance induced methicillin-resistant Staphylococcus aureus 252 assessed as assessed as reversal of drug resistance measured after 10 days in compound free media by broth microdilution method; format: functional; conditions: Staphylococcus aureus, 252, 240 h; time 10 day
Escherichia coli [34] = experiment: Antibacterial activity against drug-resistance induced Escherichia coli ATCC25922 assessed as assessed as reversal of drug resistance measured after 10 days in compound free media by broth microdilution method; format: functional; conditions: ATCC25922, 240 h, time 10 day
Staphylococcus aureus [35] = experiment: Bacteriostatic effect against methicillin-resistant Staphylococcus aureus 252 assessed as decrease in CFU/ml at MIC measured for 24 hrs by CLSI based time-kill kinetic assays; format: functional

SMILES | IC50 [3] [nM] | ΔTm (Staphylococcus aureus [8]) | ΔTm (Homo sapiens [9]) | Kd [10] [µM] | Kd [11] [µM] | Kd [12] [µM] | Kd [13] [µM] | Kd [14] [µM] | Kd [15] [nM] | Kd [16] [nM] | MIC (Escherichia coli [17]) [µg/mL] | MIC (Shigella flexneri) [µg/mL] | MIC (Salmonella typhi) [µg/mL] | MIC (Staphylococcus aureus [18]) [µg/mL] | MIC (Staphylococcus aureus [19]) [µg/mL] | MIC (Staphylococcus aureus [20]) [µg/mL] | MIC (Staphylococcus aureus [21]) [µg/mL] | CC50 [22] [nM] | fold change (FC) (Escherichia coli [32]) | other results
O=C(CC1NCCCC1O)Cn1cnc2cc(Br)c(Cl)cc2c1=O (stereo not given) [HALOFUGINONE] | 660 | 6.9 °C and 6 °C | 13.6 °C and 17.4 °C | 1020 | 781 | 628 | 11.6 | 5.51 | 423 | 216 | 64 (≈ 154 µM) | 64 (≈ 154 µM) | > 64 | 64 (≈ 154 µM) | 64 (≈ 154 µM) | > 64 | > 64 | 4320 |  | inhibition [1]: Dde; inhibition [2]: Dde; inhibition (Staphylococcus aureus [4]): Dde; inhibition (Homo sapiens [5]): Dde; inhibition (Saccharomyces cerevisiae): Dde; ΔTm [6]: 17.4 °C; ΔTm [7]: 12.5 °C
O=C(C[C@@H]1CCCCN1)Cn1cnc2cc(Cl)c(F)cc2c1=O | 180 | 10.2 °C | 20.4 °C | 376 | 276 | 205 | 8.33 | 0.691 | 67.5 | 30.3 | 1 (≈ 2.96 µM) | 1 (≈ 2.96 µM) | 4 (≈ 11.8 µM) | 1 (≈ 2.96 µM) | 1 (≈ 2.96 µM) | 2 (≈ 5.92 µM) | 4 (≈ 11.8 µM) | 76 | 16 | selectivity ratio [23]: 3600; MBC (Staphylococcus aureus [24]): 8 µg/mL (≈ 23.7 µM); Ratio (Staphylococcus aureus [25]): 8; Ratio (Escherichia coli [26]): 16; Activity (Staphylococcus aureus [27]): Active; Activity (Escherichia coli [28]): Active; Activity (Staphylococcus aureus [29]): 2.1 log10CFU/ml; Activity (Escherichia coli [30]): 1.6 log10CFU/ml; fold change (FC) (Staphylococcus aureus [31]): 15; MIC (Staphylococcus aureus [33]): 4 µg/mL; MIC (Escherichia coli [34]): 8 µg/mL
O=C(C[C@@H]1CCCCN1)Cn1cnc2cccc(Cl)c2c1=O | 5590 | 3 °C | 15.9 °C |  |  |  |  |  |  |  | > 64 | > 64 | > 64 | > 64 | > 64 | > 64 | > 64 |  |  | 
O=C(O)c1cn(C2CC2)c2cc(N3CCNCC3)c(F)cc2c1=O [CIPROFLOXACIN] |  |  |  |  |  |  |  |  |  |  |  | 2 (≈ 6.04 µM) |  |  |  |  |  |  | 16 | 
C/C(=C\C(=O)OCCCCCCCCC(=O)O)C[C@@H]1OC[C@H](C[C@@H]2O[C@H]2[C@@H](C)[C@H](C)O)[C@@H](O)[C@H]1O [MUPIROCIN] |  |  |  |  |  |  |  |  |  |  | 32 (≈ 63.9 µM) | 8 (≈ 16 µM) | 32 (≈ 63.9 µM) | 0.13 (≈ 0.26 µM) | 0.13 (≈ 0.26 µM) | 0.13 (≈ 0.26 µM) | 0.13 (≈ 0.26 µM) |  |  | Activity (Staphylococcus aureus [35]): 1.2 log10CFU/ml
CC(C)(C)c1ccc2c(=O)n(CC(=O)C[C@@H]3CCCCN3)cnc2c1 | > 100000 | 0 °C | 3.9 °C |  |  |  |  |  |  |  | > 64 | > 64 | > 64 | > 64 | > 64 | > 64 | > 64 |  |  | 
